In patent US20170097349A1 (priority 2010, published 2017):

Test system: whole blood from TB-reactor and BCG-vaccinated animals (IFN-γ response)
Type: cell-based, cattle

Row | Substance | recognition in TB-reactor animals not responding to peptides #42 or #55 | further results
1 | EAEHQAIIRDVLTASDFWGG [compound 29] | recognised in TB-reactor animals that failed to respond to peptides #42 or #55 | –
2 | SAELPDWLAANRGLAPGGHA [peptide #64] | recognised in TB-reactor animals that failed to respond to peptides #42 or #55 | immunogenicity in BCG-vaccinated animals on re-screen of Sec#1 components: immunogenic in some BCG-vaccinated animals
3 | RNIVNMLHGVRDGLVRDANN [compound 20] | recognised in TB-reactor animals that failed to respond to peptides #42 or #55 | –
4 | Staphylococcal enterotoxin B [SEB, reference compound] | – | IFN-γ response in TB-reactor and BCG-vaccinated animals: all TB-reactor and BCG-vaccinated animals responded
5 | LGRNFQVIYEQANAHGQKVQ [peptide #33] | recognised in TB-reactor animals that failed to respond to peptides #42 or #55 | –
6 | RDVLAAGDFWGGAGSVACQE [peptide #42] | – | responder frequency, TB-reactor animals: 50%
7 | QANLGEAAGTYVAADAAAAS [peptide #55] | – | responder frequency, TB-reactor animals: 36%
